# Results: patent publication US20240327415A1, “Multicomponent Complexes, Including Salts, Crystalline Forms, and Hydrates and Solvates of ENT1 Inhibitors” (iTeos Belgium SA, priority 2023, published 2024)
# Where two headings read alike, the source gives them in different places.
# Legend:
# Format in all cases: physicochemical
# [1] = XRPD characterization (summary Table 59); details: crystallinity
# [2] = pH solubility studies in buffers and biorelevant media (Example 16); details: for ML purity / Solub.: 24 h; for solution purity of the extracted mother liquors: after 24 hours slurrying in the media (Form 2: all samples except pH 4.5 Attempt 1); for solubility: 24 hours
# Description: Example 16—pH Solubility Studies—(1) Crystalline Form 2 Compound 1 di(hydrogen sulfate) trihydrate, (2) Crystalline Form 3 Compound 1 di(hydrogen sulfate), and (3) Crystalline Form 4 Compound 1 mono(hydrogen sulfate): pH solubility studies were carried out on the prepared crystalline Form 2 Compound 1 di(hydrogen sulfate) trihydrate, crystalline Form 3 Compound 1 di(hydrogen sulfate) and crystalline Form 4 Compound 1 mono(hydrogen sulfate) in the following media: (1) HCl/KCl, pH 1.2; (2) Acetate, pH 4.5; (3) Phosphate, pH 6.8; (4) FaSSIF; (5) FeSSIF; and (6) FaSSGF. Slurries of the hydrogen sulfate forms were prepared in the appropriate medium and stirred at 25° C. For the experiments in the buffer media, the pH of the slurry samples was measured and adjusted as required after 1 hour and 23 hours of the slurrying. Additional solid was added where dissolution was observed post-adjustment. The pH of the samples in the biorelevant media was measured at the 23 hour timepoint. No pH adjustment was made for the biorelevant media. After a total of 24 hours of slurrying, the mother liquors were extracted via centrifugation, and the concentrations and solution purity were determined by HPLC. The residual solids were isolated and analyzed by XRPD and are shown in FIG. 77, FIG. 78, and FIG. 79. The assessment was repeated for some of the samples, where required.
# [3] = Karl Fischer coulometric titration (water content)
# Description: In the examples below, KF titration measured using either an In Motion KF Autosampler or Direct Addition Method. The In Motion KF Autosampler was carried out via the following procedure. 15-20 mg of solid was weighed into a 10 mL glass vial and tightly sealed with a screw cap. Samples were analyzed using a Mettler Toledo C30SX and an InMotion KFOven Autosampler at 130° C. Samples were analyzed in duplicate and an average moisture content reported. See table below for further details.
# The Direct Addition Method was carried out via the following procedure. 15-20 mg of solid material was accurately weighed into a vial. The solid was then manually introduced into the titration cell of a Mettler Toledo C30 Compact Titrator. The vial was back-weighed after the addition of the solid and the weight of the added solid entered on the instrument. Titration was initiated once the sample had fully dissolved in the cell. The water content was calculated automatically by the instrument as a percentage and the data printed.
# [4] = TG/DSC and DSC thermal analysis; details: for TGA/DSC thermal event, onset: value before the brackets; for TGA/DSC thermal event, peak: value in brackets
# Description: (§1) In the examples below, to measure TGA/DSC, 2-10 mg of material was added into a pre-tared open aluminum pan and loaded into a TA Instruments Discovery SDT 650 Auto—Simultaneous DSC and held at room temperature. The sample was then heated at a rate of 10° C./min from 30° C. to 400° C. during which time the change in sample weight was recorded along with the heat flow response (DSC). Nitrogen was used as the sample purge gas, at a flow rate of 200 cm^3/min.
# (§2) METHOD A: In Example 3, 1-5 mg of material was weighed into an aluminum DSC pan and sealed non-hermetically with a pierced aluminum lid. The sample pan was then loaded into a TA DSC2500 and held at 20° C. Once a stable heat-flow response was obtained, the sample and reference were heated to an upper temperature of 200° C. at a scan rate of 10° C./min and the resulting heat flow response monitored. The sample was held at the upper temperature for 3 minutes, before it was cooled at 10° C./min to 20° C., reheated to the upper temperature at 10° C./min, and then cooled again to 20° C. at the same rate. Nitrogen was used as the purge gas, at a flow rate of 50 cm^3/min.
# as §2, with “B:” for “A:”, “Examples 2A, 14, and 17,” for “Example 3,”, “−80° C. and then” for “20° C.,”, “C./min.” for “C./min, and then cooled again to 20° C. at the same rate.”
# METHOD C: In Example 5, 1-5 mg of a sample were weighed into an aluminum DSC pan and sealed non-hermetically with an aluminum lid. The sample pan was then loaded into a TA Instruments Discovery DSC 2500 differential scanning calorimeter equipped with a RC90 cooler. The sample and reference were heated to 190° C. at a scan rate of 10° C./min and the resulting heat flow response monitored. The sample was re-cooled to −80° C. and then reheated again to 190° C. all at 10° C./min. Nitrogen was used as the purge gas, at a flow rate of 50 cm^3/min.
# as §1, with “2-10” for “In the examples below, to measure TGA/DSC, 2-10”, “Auto-Simultaneous” for “Auto—Simultaneous”
# as §2, with “1-5” for “METHOD A: In Example 3, 1-5”, “min,” for “minutes,”
# [5] = FaSSGF, 25° C., pH after 24 h 0.87
# [6] = FaSSIF, 25° C., pH after 24 h 1.10
# [7] = FeSSIF, 25° C., pH after 24 h 1.01, Cloudy
# [8] = pH 1.2 (HCl/KCl), attempt 1, 25° C., pH after 24 h 1.13
# [9] = pH 4.5 (Acetate), attempt 1, 25° C., pH after 24 h 4.76→4.58
# [10] = pH 4.5 (Acetate), attempt 2, 25° C., pH after 24 h 4.88→4.56
# [11] = pH 6.8 (Phosphate), attempt 1, 25° C., pH after 24 h 5.57→6.70
# [12] = pH 6.8 (Phosphate), attempt 2, 25° C., pH after 24 h 1.57→6.71
# [13] = FaSSGF, 25° C., pH after 24 h 1.98
# [14] = FaSSIF, 25° C., pH after 24 h 3.93
# [15] = FeSSIF, 25° C., pH after 24 h 4.34
# [16] = pH 1.2 (HCl/KCl), 25° C., pH after 24 h 1.57→1.33
# [17] = pH 4.5 (Acetate), 25° C., pH after 24 h 4.43
# [18] = pH 6.8 (Phosphate), 25° C., pH after 24 h 5.19→6.94
# [19] = listed as Crystalline Form 4 Compound 1 mono(hydrogen sulfate)
structure (smiles),measurement,setting,value
COc1cc(C(=O)O[C@@H]2CCCOc3cc(cc(OC)c3OC)C(=O)NCCCN3CCCN(CC2)CC3)cc(OC)c1OC.O=S(=O)(O)O.O=S(=O)(O)O [crystalline Form 3 Compound 1 di(hydrogen sulfate)],XRPD,[1],Partially
same,ML purity,[2]; [5],99.51 % area
same,Solub.,[2]; [5],72.0 mg/mL
same,ML purity,[2]; [6],99.76 % area
same,Solub.,[2]; [6],77.1 mg/mL
same,ML purity,[2]; [7],99.90 % area
same,Solub.,[2]; [7],≥208.3 mg/mL
same,solution purity of the extracted mother liquors,[2],> 95 % area
same,solubility,"[2]; all the media assessed, except the pH 4.5 media, 25° C.",> 50 mg/mL
same,pH solubility,[2]; pH 1.2,pH 1.2: 76 mg/mL
same,pH solubility: residual solid,[2]; pH 1.2,"mg/mL, Form 2"
same,ML purity,[2]; [8],99.56 % area
same,Solub.,[2]; [8],75.7 mg/mL
same,pH solubility,[2]; pH 4.5,pH 4.5: 54 mg/mL
same,pH solubility: residual solid,[2]; pH 4.5,"mg/mL, Form 4"
same,ML purity,[2]; [9],99.59 % area
same,Solub.,[2]; [9],54.2 mg/mL
same,ML purity,[2]; [10],95.53 % area
same,Solub.,[2]; [10],20.0 mg/mL
same,solubility,"[2]; pH 4.5 media, Attempt 2, 25° C.",20 mg/mL
same,pH solubility,[2]; pH 6.8,pH 6.8: 150 mg/mL
same,pH solubility: residual solid,[2]; pH 6.8,"mg/mL, Gum"
same,ML purity,[2]; [11],99.87 % area
same,Solub.,[2]; [11],122.5 mg/mL
same,ML purity,[2]; [12],99.16 % area
same,Solub.,[2]; [12],152.8 mg/mL
same,KF moisture content,[3],1.89% moisture
same,TGA/DSC mass loss,[4],3.1% mass loss
same,"TGA/DSC thermal event, onset",[4],163 °C
same,"TGA/DSC thermal event, peak",[4],177 °C
COc1cc(C(=O)O[C@@H]2CCCOc3cc(cc(OC)c3OC)C(=O)NCCCN3CCCN(CC2)CC3)cc(OC)c1OC.O=S(=O)(O)O,XRPD,[1],Crystalline
same,ML purity,[2]; [13],99.82 % area
same,Solub.,[2]; [13],36.7 mg/mL
same,ML purity,[2]; [14],99.86 % area
same,Solub.,[2]; [14],44.9 mg/mL
same,ML purity,[2]; [15],99.69 % area
same,Solub.,[2]; [15],124.2 mg/mL
same,solution purity of the extracted mother liquors,[2],> 98 % area
same,pH solubility,[2]; pH 1.2,pH 1.2: 134 mg/mL
same,pH solubility: residual solid,[2]; pH 1.2,"mg/mL, Form 4"
same,ML purity,[2]; [16],>99.99 % area
same,Solub.,[2]; [16],134.1 mg/mL
same,solubility,"[2]; pH 1.2 and FeSSIF media, 25° C.",> 100 mg/mL
same,pH solubility,[2]; pH 4.5,pH 4.5: 47 mg/mL
same,pH solubility: residual solid,[2]; pH 4.5,"mg/mL, Form 4"
same,ML purity,[2]; [17],99.86 % area
same,Solub.,[2]; [17],46.9 mg/mL
same,pH solubility,[2]; pH 6.8,pH 6.8: 62 mg/mL
same,pH solubility: residual solid,[2]; pH 6.8,"mg/mL, Gum"
same,ML purity,[2]; [18],98.30 % area
same,Solub.,[2]; [18],62.0 mg/mL
same,solubility,"[2]; the other media assessed, 25° C.",30 to 80 mg/mL
same,KF moisture content,[3],14.87% moisture
same,DSC (onset/peak): onset,[4],113 °C
same,DSC (onset/peak): peak,[4],119 °C
same,TGA/DSC mass loss,[4]; [19],15.5% mass loss
same,"TGA/DSC thermal event, onset",[4]; [19],148 °C
same,"TGA/DSC thermal event, peak",[4]; [19],160 °C
